Measurements reported in the NIST ThermoML archive (doi:10.1016/j.tca.2016.02.005).
± gives the expanded uncertainty stated by the source.

Tests used:
[1] = refractive index (Na D-line) (dimensionless); xn = mol fraction of the nth substance listed; settings: 101.3 kPa, Liquid, Standard Abbe refractometry
[2] = xn = mol fraction of the nth substance listed; settings: 101.3 kPa, Liquid; for speed of sound: Frequency=3 MHz, Sing-around technique in a fixed-path interferometer; for mass density: Vibrating tube method

COCCO [2-methoxyethan-1-ol] + CCn1cc[n+](C)c1.F[B-](F)(F)F
Settings	mass density, [2] [kg/m3]	refractive index, [1]	speed of sound, [2] [m/s]
298.15 K, x2 = 0	960.9 ± 2	1.4003 ± 0.0004	1345.8 ± 1.5
298.15 K, x2 = 0.0515	993.6 ± 2	1.4031 ± 0.0004	1379.1 ± 1.6
298.15 K, x2 = 0.102	1022 ± 2	1.4052 ± 0.0004	1408.5 ± 1.6
298.15 K, x2 = 0.1502	1046.9 ± 2	1.4067 ± 0.0004	1433.7 ± 1.6
298.15 K, x2 = 0.21	1075 ± 2	1.408 ± 0.0004	1461.4 ± 1.6
298.15 K, x2 = 0.3051	1113.8 ± 2	1.4094 ± 0.0004	1498.3 ± 1.6
298.15 K, x2 = 0.3976	1145.5 ± 2	1.4101 ± 0.0004	1526.8 ± 1.6
298.15 K, x2 = 0.5036	1175.9 ± 2	1.4107 ± 0.0004	1552.1 ± 1.6
298.15 K, x2 = 0.6063	1200.7 ± 2	1.4111 ± 0.0004	1570.9 ± 1.6
298.15 K, x2 = 0.701	1220.6 ± 2	1.4115 ± 0.0004	1584.8 ± 1.6
298.15 K, x2 = 0.8024	1240.1 ± 2	1.4118 ± 0.0004	1597.7 ± 1.6
298.15 K, x2 = 0.8521	1249.4 ± 2	1.4117 ± 0.0004	1603.7 ± 1.6
298.15 K, x2 = 0.9	1258.3 ± 2	1.4115 ± 0.0004	1609.6 ± 1.6
298.15 K, x2 = 0.9502	1267.8 ± 2	1.4111 ± 0.0004	1616 ± 1.6
308.15 K, x2 = 0	951.7 ± 2	1.3961 ± 0.0004	1311.3 ± 1.5
308.15 K, x2 = 0.0515	984.6 ± 2	1.3991 ± 0.0004	1345.9 ± 1.6
308.15 K, x2 = 0.102	1013.2 ± 2	1.4014 ± 0.0004	1376.4 ± 1.6
308.15 K, x2 = 0.1502	1038.3 ± 2	1.4031 ± 0.0004	1402.7 ± 1.6
308.15 K, x2 = 0.21	1066.5 ± 2	1.4046 ± 0.0004	1431.6 ± 1.6
308.15 K, x2 = 0.3051	1105.5 ± 2	1.4061 ± 0.0004	1470 ± 1.6
308.15 K, x2 = 0.3976	1137.4 ± 2	1.407 ± 0.0004	1499.7 ± 1.6
308.15 K, x2 = 0.5036	1168 ± 2	1.4077 ± 0.0004	1526.1 ± 1.6
308.15 K, x2 = 0.6063	1192.9 ± 2	1.4082 ± 0.0004	1545.8 ± 1.6
308.15 K, x2 = 0.701	1212.9 ± 2	1.4087 ± 0.0004	1560.3 ± 1.6
308.15 K, x2 = 0.8024	1232.4 ± 2	1.4091 ± 0.0004	1573.6 ± 1.6
308.15 K, x2 = 0.8521	1241.7 ± 2	1.4091 ± 0.0004	1579.8 ± 1.6
308.15 K, x2 = 0.9	1250.6 ± 2	1.4089 ± 0.0004	1585.9 ± 1.6
308.15 K, x2 = 0.9502	1260.2 ± 2	1.4085 ± 0.0004	1592.5 ± 1.6
318.15 K, x2 = 0	942.7 ± 2	1.3917 ± 0.0004	1276.4 ± 1.5
318.15 K, x2 = 0.0515	975.9 ± 2	1.3951 ± 0.0004	1312.3 ± 1.6
318.15 K, x2 = 0.102	1004.7 ± 2	1.3977 ± 0.0004	1344.1 ± 1.6
318.15 K, x2 = 0.1502	1030 ± 2	1.3996 ± 0.0004	1371.4 ± 1.6
318.15 K, x2 = 0.21	1058.5 ± 2	1.4013 ± 0.0004	1401.5 ± 1.6
318.15 K, x2 = 0.3051	1097.9 ± 2	1.403 ± 0.0004	1441.5 ± 1.6
318.15 K, x2 = 0.3976	1130.1 ± 2	1.4039 ± 0.0004	1472.5 ± 1.6
318.15 K, x2 = 0.5036	1160.8 ± 2	1.4047 ± 0.0004	1500.1 ± 1.6
318.15 K, x2 = 0.6063	1185.8 ± 2	1.4053 ± 0.0004	1520.6 ± 1.6
318.15 K, x2 = 0.701	1205.8 ± 2	1.406 ± 0.0004	1535.7 ± 1.6
318.15 K, x2 = 0.8024	1225.2 ± 2	1.4064 ± 0.0004	1549.6 ± 1.6
318.15 K, x2 = 0.8521	1234.4 ± 2	1.4065 ± 0.0004	1556.1 ± 1.6
318.15 K, x2 = 0.9	1243.2 ± 2	1.4064 ± 0.0004	1562.4 ± 1.6
318.15 K, x2 = 0.9502	1252.5 ± 2	1.4059 ± 0.0004	1569.2 ± 1.6
328.15 K, x2 = 0	933.4 ± 2	1.3876 ± 0.0004	1241.9 ± 1.5
328.15 K, x2 = 0.0515	966.8 ± 2	1.3914 ± 0.0004	1279.2 ± 1.6
328.15 K, x2 = 0.102	995.8 ± 2	1.3943 ± 0.0004	1312.1 ± 1.6
328.15 K, x2 = 0.1502	1021.3 ± 2	1.3965 ± 0.0004	1340.5 ± 1.6
328.15 K, x2 = 0.21	1050 ± 2	1.3983 ± 0.0004	1371.7 ± 1.6
328.15 K, x2 = 0.3051	1089.6 ± 2	1.4002 ± 0.0004	1413.4 ± 1.6
328.15 K, x2 = 0.3976	1122 ± 2	1.4011 ± 0.0004	1445.7 ± 1.6
328.15 K, x2 = 0.5036	1152.9 ± 2	1.4018 ± 0.0004	1474.5 ± 1.6
328.15 K, x2 = 0.6063	1178 ± 2	1.4024 ± 0.0004	1495.9 ± 1.6
328.15 K, x2 = 0.701	1198.1 ± 2	1.403 ± 0.0004	1511.7 ± 1.6
328.15 K, x2 = 0.8024	1217.6 ± 2	1.4035 ± 0.0004	1526.2 ± 1.6
328.15 K, x2 = 0.8521	1226.8 ± 2	1.4036 ± 0.0004	1532.9 ± 1.6
328.15 K, x2 = 0.9	1235.6 ± 2	1.4035 ± 0.0004	1539.4 ± 1.6
328.15 K, x2 = 0.9502	1245 ± 2	1.4031 ± 0.0004	1546.4 ± 1.6
